Reference: a melting point compilation (Tetko et al.; mined from patent text by program, amines drawn as free bases though some values may be those of a salt)

melting point | Structure (SMILES)
90.5 to 91.5 °C | C=CCc1c(C)nc2c(OCc3ccccc3)cccn12
148 to 150 °C | CN1CC(=Cc2ccccc2Cl)C(=O)C(=Cc2ccccc2Cl)C1
205 to 206 °C | CC(=O)SCC(Cc1ccccc1)C(=O)Nc1cc(C(=O)O)cc(C(C)C)c1 (stereo not given)
175 to 176 °C | Nc1ccccc1-c1[nH]ncc1[N+](=O)[O-]
266 to 269 °C | CS(=O)c1n[nH]c2ccccc2c1=O (stereo not given)
124 to 126 °C | Cc1ccccc1C(O)c1nnn[nH]1 (racemic)
150 to 152 °C | O=C1CCC(c2ccc(N3C(=O)c4ccccc4C3=O)cc2)CC1
177 to 178 °C | COc1ccc(C(=O)c2c(N)sc3c2CCCN3C(=O)OCc2ccccc2)cc1OC
198 to 200 °C | Cc1cc2c(cc1C)C1(O)C(=O)c3ccccc3C1(O)O2 (stereo not given)
103 to 106 °C | O=C1CCc2cc(-c3cccnc3)ccc21
155 to 156 °C | CC(C)(O)c1nnc(-c2ccc3occ(-c4cc(F)ccc4F)c3c2)o1
95 to 98 °C | COC(=O)CN(C)C(=O)c1c(OCc2ccccc2)ccc2c(C(F)(F)F)c(OC)ccc12
218 to 220 °C | CC1(C)Oc2ccc(C#N)cc2[C@@H](NC2=C(CO)C(=O)CC2)[C@@H]1O (relative stereo)
170 °C | Cc1cc(C)c2nc(NCCCO)n(Cc3nc(C)ccc3O)c2c1
158 to 160 °C | CC(C)(C)[Si](C)(C)OCCCn1ccc2c3c(c(-c4ccccc4Cl)cc21)C(=O)NC3=O
107 °C | NC(=O)N(O)Cc1ccc2c(c1)CCN2Cc1ccccc1
99 to 102 °C | O=C(c1ccc(F)cc1)C1CCN(CC2CCc3onc(-c4ccccc4F)c3C2=O)CC1 (stereo not given)
320 °C | O=C1Nc2cc(Cl)ccc2C(=O)C1c1csc2ccccc12 (stereo not given)
> 300 °C | Cc1[nH]n(Cc2cccc(C(N)=O)c2)c2nc(-c3ccncc3)nc(=O)c1-2
121 to 122 °C | CC1C(=O)C(c2ccc(S(C)(=O)=O)cc2)=C1c1ccccc1 (stereo not given)
168 to 170 °C | Cc1cc2c(O)cccc2[nH]1
202 to 204 °C | Cc1c(C(=O)OCc2ccc(Cl)cc2)oc2cccc(O)c12
290 °C | CCOC(=O)c1cn(C)c2cnc3cc(F)c(N4CCNC(c5ccc(C)c(C)c5)C4)cc3c2c1=O (stereo not given)
66 to 70 °C | Cc1cc(C)n(-c2nc(NC3Cc4ccccc4C3)cc(N3CCOCC3)n2)n1
142 to 144 °C | CC(C)(C)c1ccc2c(c1)C(=O)NC2
224 to 225 °C | O=c1c2cccc3c2n(c(=O)n1CC(O)CO)-c1cc(C(F)(F)F)ccc1S3=O (stereo not given)
138 to 141 °C | N#Cc1ccc2oc(-c3ccccc3)cc2c1
107 to 108 °C | C=CCOc1ccc2c(C)cc(=O)oc2c1C
74 to 75 °C | O=C(O)Cc1cccc(F)c1OCCc1ccccc1
245 to 248 °C | COc1cc2nc(N3CCN(C(=O)C=Cc4ccccc4)CC3)nc(N)c2cc1OC

Further lines, the compound ahead of its results:

Structure (SMILES) | melting point
CCc1nc2c(N)nc3ccccc3c2n1CCCNOC | 210 to 213 °C
C=CCn1c2c(ccc1=O)C(NCCc1ccccc1)CCC2 (stereo not given) | 60 to 62 °C
OC1(c2cccc(-c3ccccc3)c2)CN2CCC1CC2 (stereo not given) | 165 to 166 °C
Cc1oc(-c2ccccc2)nc1CCOc1ccc(C[C@H](NC(=O)C=Cc2ccc(F)c(F)c2)C(=O)O)cc1 | 204 to 206 °C
O=[N+]([O-])c1cc(CO)ccc1Br | 61 to 62 °C
C=CC(=O)NC(C(=O)OCC)C(=O)OCC | 105 to 106 °C
CCC1(Cl)C(=O)c2c(cc(OCC(=O)O)c(Cl)c2Cl)C1Cl (stereo not given) | 186 °C
CC(C)[Si](Oc1ccc([C@H](O)[C@H](C)N2CCC(O)(c3ccccc3)CC2)cc1)(C(C)C)C(C)C (relative stereo) | 148 to 151 °C
CCOC=CC(=O)Nc1cccc(C(=O)O)c1 | 200 to 202 °C
COc1ccc(-c2nc(CCOc3ccc(CN(O)C(N)=O)cc3)c(C)o2)cc1 | 100 to 101 °C
Cc1nc2cc(Cl)c(C)c(Cl)c2o1 | 80 to 82 °C
CC1(C)OCC(CONC(=O)c2ccc(F)c(F)c2Nc2ccc(I)cc2F)O1 (stereo not given) | 114 to 115 °C
O=c1[nH]c2cc(F)c(O)c([N+](=O)[O-])c2[nH]c1=O | > 360 °C
O=C(CC12CC3CC(CC(C3)C1)C2)Nc1cc(O)ccc1Cl | 224 to 225 °C
CCCCc1c(Cl)nc(NC=O)nc1Cl | 82 to 83 °C
FC(F)(F)c1cccc(N(c2ccccc2)c2ccc(-c3ccc(N(c4ccccc4)c4cccc(C(F)(F)F)c4)cc3)cc2)c1 | 150 °C
CC(C)(C)OC(=O)NC1C=C(C(=O)O)OC1 (stereo not given) | 117 to 120 °C
CCCCN(Cc1ccc(-c2ccccc2-c2nnn[nH]2)cc1)c1ncncc1C(=O)OC(C)OC(=O)c1ccccc1 (stereo not given) | 79 to 88 °C
CCn1nc(C(N)=O)cc1CC(C)(C)NC(=O)OC(C)(C)C | 178 to 180 °C
C=C(C)c1ccc(C(C)(C)OOC(C)(C)c2ccccc2)cc1 | 40 °C
Cc1oc(-c2ccccc2)nc1CCc1ccc(CCCCCC2OC(=O)NC2=O)cc1 (stereo not given) | 116 to 117 °C
Cc1cc(NC(=O)C(=O)N(C(C)C)C(C)C)cc(C)c1S(=O)(=O)C[N+](=O)[O-] | 97 to 98 °C
O=P(COc1ccc2ccccc2c1-c1c(OCP(=O)(c2ccccc2)c2ccccc2)ccc2ccccc12)(c1ccccc1)c1ccccc1 | 252 to 253 °C
C[C@]1(CN2CCN(C(=O)COc3ccc(Cl)cc3)CC2)Cn2cc([N+](=O)[O-])nc2O1 | 179 to 180 °C

Structure (SMILES) | melting point
CCCc1c2c(c(F)c3c(=O)cc(C(=O)OCC)oc13)CCCC2 | 126 to 129 °C
CCOc1cc2c(cc1OCC)[C@@H]1CN(C)CC[C@@H]1N=C2c1ccc(NS(=O)(=O)c2ccc(C)cc2)cc1 | 267 to 268 °C
CN1CCN(C2CC3C4CCC5CC(O)C(N6CCC(=O)CC6)CC5(C)C4CCC3(C)C2O)CC1 (stereo not given) | 225 to 229 °C
Cc1ccc(-c2c(Cl)ncnc2NS(=O)(=O)c2ccc(C(C)(C)CO)cc2)cc1 | 227 to 228 °C
CC(C)(O)C#Cc1ccc(F)cc1 | 124 °C
COC(=O)C1C(CC(C)C)C(C(=O)OC)C(O)(C(F)(F)F)OC1(O)C(F)(F)F (stereo not given) | 67 to 73 °C
COc1ccc(S(=O)(=O)Nc2cccnc2Nc2cccc(C)c2)cc1 | 147 to 148 °C
O=C(CCCCCNC(=O)c1ccccc1S)Nc1cccnc1 | 110 to 112 °C
Cc1c(N2C[C@@H](N)[C@@H](C(C)C)C2)c(F)cc2c(=O)c(C(=O)O)cn([C@@H]3C[C@@H]3F)c12 | 124 to 127 °C
CC(C)c1ccc2c(c1)C(Cl)Cc1ccc(F)cc1S2 (stereo not given) | 82 to 83 °C
CC(C)(C)OC(=O)N[C@@H](CCC(N)=O)C(=O)N1CCN(Cc2ccccc2)CC1 | 158 to 159 °C
O=C(O)c1cn(C2CC2)c2cc(N3CCNC(COc4ccccc4)C3)c(F)cc2c1=O (stereo not given) | 112 to 115 °C
O=C(NCCc1c[nH]c2ccc(C(=O)Nc3ccccc3)cc12)OCc1ccccc1 | 136 to 138 °C
COC(=O)c1ccc(-c2c(C(=O)N(C)Cc3cc(C(F)(F)F)cc(C(F)(F)F)c3)n(C)c(=O)c3ncccc23)cc1 | 123 to 125 °C
COc1cc(OC)nc(NC(=O)NS(=O)(=O)c2c(Cl)cccc2CN2CCOC2=O)n1 | 135 to 136 °C
Cc1ccncc1-c1cccc(OC2SCC(O)C(O)C2O)c1 (stereo not given) | 143 °C
CSc1ccc(Br)c2c1C1=NOCC1C2 (stereo not given) | 127 to 135 °C
CCOc1nn(C(=O)NS(=O)(=O)Cl)c(=O)n1C | 106 °C
CCOc1nn(-c2cccc3c2OC(C)(C)C3)c(=O)o1 | 72 to 74 °C
COc1ccc(-c2cn([C@H]3CN4CCC3CC4)nn2)cn1 | 155 °C
Cc1cc(Nc2ccc(Cl)cc2)nc(-c2cccc(Cl)n2)n1 | 239 °C
Cc1ccc(C)c(SCCCCCC(=O)O)c1 | 61 to 62 °C
O=C1OCCN1CCN1CCN(C2Cc3cc(Cl)ccc3Oc3ccc(F)cc32)CC1 (stereo not given) | 180 to 182 °C
O=[N+]([O-])c1cc(CO)ccc1Oc1ccc(OCc2ccccc2)cc1 | 72 to 73 °C

Structure (SMILES) | melting point
CS(=O)(=O)c1cc(O)ccc1/C=C/c1ccc(O)cc1 | 244 to 245 °C
CN(C)C(=O)Nc1snc(N(C)C)c1C#N | 203 to 204 °C
O=C(Nc1ccc(-c2cnc(-c3ccc(NC(=O)C4CCCCC4)cc3)[nH]2)cc1)c1cccnc1 | 315 to 317 °C
Cc1ccc(-c2ccccc2C(=O)Nc2ccc(C(=O)N3CCC(=O)N(CC(=O)N4CCN(C)CC4)c4ccccc43)cc2)cc1 | 161 to 163 °C
CNc1nc(Cl)cc(NS(=O)(=O)c2ccc(F)cc2)n1 | 121 to 123 °C
N#CSc1nc(Cl)ncc1Cl | 160 to 162 °C
CC(C)(C)OC(=O)Nc1cnc(Cl)cc1C(=O)O | 250 °C
COC1=CC=C2C(=CCC(C)(c3ccc(OC)cc3)C2CCCCCCO)C1 (stereo not given) | 76 to 83 °C
CC(C)(C)OC(=O)Nc1ccc(C#Cc2ccc(F)cc2)cc1NC(=O)CC(=O)c1ccnc(-n2ccnc2)c1 | 169 °C
COc1nc(C)cnc1N(C(=O)OCC(C)C)S(=O)(=O)c1cccnc1-c1ccc(C=O)cc1 | 154 to 156 °C
COc1cc(C(=O)OC(C)C)cc(OC)c1Cc1cnc(N)nc1N | 209 to 213 °C
C=Cc1cccc(N2CC(CNC(=O)OC(C)(C)C)C2)n1 | 85 to 87 °C
CC(=O)c1ccc2nc3n(c2c1)CCC(=O)N3 | > 320 °C
NC(=O)c1ccc(NC2CCN(Cc3ccccc3)C2)cc1 (stereo not given) | 160 to 162 °C
CCCCCCSCCSc1nc(N)n[nH]1 | 76.5 to 78 °C
O=CNNc1cccc(NC(=S)Nc2ccccc2)c1 | 143 to 145 °C
COC(=O)[C@H](O)[C@@H](NC(=O)OC(C)(C)C)c1ccc(F)cc1 | 125 °C
COc1cc2c(cc1F)CC(C)C2=O (stereo not given) | 76 to 78 °C
CC(C)(O)c1ccc(C(=O)Nc2cn3cc(-n4ccnc4)ccc3n2)cc1 | 281 to 282 °C
COc1c(SC)ccc(C(=O)C(C#N)C(=O)C2CC2)c1Br (stereo not given) | 128 to 129 °C
c1ccc(CC2CCN(Cc3ccn(-c4ccccc4)c3)CC2)cc1 | 159 to 161 °C
N[C@@H](Cc1ccc(O)cc1)[C@H](O)C(F)(F)F | 172 to 174 °C
